From patent publication US20060110594A1, “Polymer-coated substrates for binding biomolecules and methods of making and using thereof” (priority 2004, published 2006)
Where “and” joins values, the source holds several entries; their conditions need not be identical. Equal entries are not always repeated. Where two headings read alike, the source gives them in different places. One block for each compound: values may come before it.

What was measured:
streptavidin = streptavidin (Streptomyces avidinii, UniProt P22629); test: Small molecule binding to streptavidin immobilized on EMA, Corning LID; conditions: for signal-to-noise ratio: binding to streptavidin immobilized on EMA
Description: Streptavidin was immobilized on an EMA coated LID microplate by incubating the wells with a solution of 25 ug/mL of the protein in an acetate buffer (20 mM, pH 5.5) for 15 minutes. As negative controls, additional wells were blocked with ethanolamine. The binding of the small molecule fluorescein-biotin (“Fl-biotin”, 831 Da) was monitored as a function of time in the LID instrument. A 100 nM solution of Fl-biotin in PBS was introduced into each well and allowed to bind for several minutes. […] The data have been corrected for bulk index of refraction effects by subtracting out the response from the negative control well. […] This experiment was repeated in each column of the plate with similar results.

human serum albumin = human serum albumin (Homo sapiens, UniProt P02768); test: Drug binding to human serum albumin immobilized on EMA, Corning LID
Lys-D-Ala-D-Ala [1] = conditions: measured in solution (ref 12); read-out: Kd reported in the literature; cited from earlier work
Lys-D-Ala-D-Ala [2] = test: Vancomycin competitive inhibition on EMA coated microplate, Corning LID; format: binding; conditions: in the presence of excess (250 uM) Lys-D-Ala-D-Ala
Description: (§1) To test the specificity of the interaction, a competitive binding assay was performed in which the surface was incubated with a fixed (5 μM) concentration of vancomycin in the presence of varying concentrations of the peptide Lys-D-Ala-D-Ala. […] Similar competitive inhibition experiments were performed on a Corning LID microplate coated with EMA (see FIG. 7).

Lys-D-Ala-D-Ala [3] = test: Vancomycin competitive inhibition binding assay, SPR
Description: as §1

Lys-D-Ala-D-Ala [4] = test: Vancomycin binding to immobilized Lys-D-Ala-D-Ala, SPR (Biacore 2000); conditions: for Total Signal: 5 μM vancomycin; for Nonspecific Binding: 5 uM vancomycin + 500 μM DADA; for Kd: Scatchard analysis, vancomycin 10, 5, 2.5, 1.25 μM
Description: (Vancomycin is an antibiotic that binds to the C-terminal D-Ala-D-Ala group of Gram-positive bacterial cell wall precursors and inhibits cell wall synthesis.) Experiments were performed on the Biacore 2000 SPR instrument using gold sensor chips modified with either EMA or poly(triethylene glycol-co-maleic anhydride) (“PEG-MA”); for comparison, experiments were also performed on Biacore's CM5 surface.

[5] = isoelectric point, listed property; cited from earlier work
[6] = Streptavidin binding to immobilized biotin on EMA coated microplate, Corning LID; conditions: streptavidin 100 nM in PBS, six wells
Description: The performance of EMA in a small molecule/protein binding assay was tested using a biotin/streptavidin model system and Corning LID detection. Biotin was immobilized in rows A-G of a Corning LID microplate by incubating each well with 75 uL of a 10 uM solution of biotin-peo-amine in borate buffer (150 mM, pH 9) for 30 minutes; row H was reacted with ethanolamine (200 mM in borate buffer, pH 9) to serve as a negative control. The plate was docked in the LID instrument and the binding of streptavidin (100 nM in phosphate buffered saline (PBS)) was monitored as a function of time as shown in FIG. 4A.

[7] = Streptavidin/BSA binding to biotin immobilized on MAMVE and SMA, Biacore SPR; conditions: streptavidin 1 μM; biotin-groups immobilized on MAMVE; BSA as control
Excerpt: Biacore SPR detection was used for these experiments in which biotin was immobilized on the surfaces by injecting solutions of 5-(biotinamido)pentylamine over each surface. […] Non-specific binding of proteins to surfaces such as those presenting hydrophobic aromatic groups is well documented; the inertness of surfaces presenting —OCH3 groups to non-specific adsorption has also been observed (13).

Chain of human serum albumin (P02768 25-609): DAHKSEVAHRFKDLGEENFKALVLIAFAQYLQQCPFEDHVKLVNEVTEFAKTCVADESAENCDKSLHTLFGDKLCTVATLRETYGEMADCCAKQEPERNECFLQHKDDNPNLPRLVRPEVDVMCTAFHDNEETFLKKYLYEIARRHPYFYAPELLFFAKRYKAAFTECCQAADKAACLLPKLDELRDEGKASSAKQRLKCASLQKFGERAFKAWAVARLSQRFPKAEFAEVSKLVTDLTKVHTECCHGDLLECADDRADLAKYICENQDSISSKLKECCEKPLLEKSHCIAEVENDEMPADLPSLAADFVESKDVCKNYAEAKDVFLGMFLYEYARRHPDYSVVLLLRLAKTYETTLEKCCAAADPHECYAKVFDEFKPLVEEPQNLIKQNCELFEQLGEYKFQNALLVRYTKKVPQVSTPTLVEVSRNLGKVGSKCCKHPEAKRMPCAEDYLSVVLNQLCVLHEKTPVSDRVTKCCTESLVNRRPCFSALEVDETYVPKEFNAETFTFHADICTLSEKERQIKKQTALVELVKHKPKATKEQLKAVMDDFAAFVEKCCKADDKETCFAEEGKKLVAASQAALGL

Compound: O=C(O)CCCC[C@@H]1SC[C@@H]2NC(=O)N[C@@H]21 [biotin]
response for binding to immobilized streptavidin (streptavidin; EMA coated LID microplate, Fl-biotin 100 nM in PBS, relative to negative control well): ~5 pm | signal-to-noise ratio (streptavidin): ~50

Compound: C[C@H]1O[C@@H](O[C@H]2[C@@H](O)C[C@H](O[C@H]3[C@@H](O)C[C@H](O[C@H]4CC[C@@]5(C)[C@H](CC[C@@H]6[C@@H]5CC[C@]5(C)[C@@H](C7=CC(=O)OC7)CC[C@]65O)C4)O[C@@H]3C)O[C@@H]2C)C[C@H](O)[C@@H]1O [digitoxin]
lowest concentration successfully detected (human serum albumin): 6 µM

Compound: O=C(CCCCCNC(=O)CCCC[C@@H]1SC[C@@H]2NC(=O)N[C@@H]21)NCCCCCNC(=S)Nc1ccc2c(c1)C(=O)OC21c2ccc(O)cc2Oc2cc(O)ccc21 [fluorescein-biotin]
signal-to-noise ratio (streptavidin): > 200

Compound: CN[C@H](CC(C)C)C(=O)N[C@H]1C(=O)N[C@@H](CC(N)=O)C(=O)N[C@H]2C(=O)N[C@H]3C(=O)N[C@H](C(=O)N[C@H](C(=O)O)c4cc(O)cc(O)c4-c4cc3ccc4O)[C@H](O)c3ccc(c(Cl)c3)Oc3cc2cc(c3O[C@@H]2O[C@H](CO)[C@@H](O)[C@H](O)[C@H]2O[C@H]2C[C@](C)(N)[C@H](O)[C@H](C)O2)Oc2ccc(cc2Cl)[C@H]1O [vancomycin]
Kd (Lys-D-Ala-D-Ala [1]): ~1000 nM | reduction of vancomycin binding signal (Lys-D-Ala-D-Ala [2]): 83% | amount of nonspecific binding, lower on PEG-MA relative to EMA (Lys-D-Ala-D-Ala [3]; PEG-MA relative to EMA): ~2 × | binding specificity (Lys-D-Ala-D-Ala [3]; both maleic anhydride copolymer surfaces tested (EMA, PEG-MA), 5 μM vancomycin): > 90% | Total Signal (Lys-D-Ala-D-Ala [4]; CM5 surface): 1251 RU | Nonspecific Binding (Lys-D-Ala-D-Ala [4]; CM5 surface): 3 RU | Kd (Lys-D-Ala-D-Ala [4]; CM5 surface): 280 nM and 270 nM | Total Signal (Lys-D-Ala-D-Ala [4]; EMA surface): 2538 RU | Nonspecific Binding (Lys-D-Ala-D-Ala [4]; EMA surface): 290 RU | Kd (Lys-D-Ala-D-Ala [4]; EMA surface): 340 nM | Total Signal (Lys-D-Ala-D-Ala [4]; PEG-MA surface): 2006 RU | Nonspecific Binding (Lys-D-Ala-D-Ala [4]; PEG-MA surface): 128 RU | Kd (Lys-D-Ala-D-Ala [4]; PEG-MA surface): 1300 nM

Compound: Lysozyme: protein immobilized on EMA, 14 kDa
pI [5]: 9.5

average response [6]: 465 pm | specificity of binding [7]: specific
Compound: streptavidin: protein binding biotin; 60 kDa
pI [5]: 5
